Results as given in paper PMC12062775, “Shifting the substrate scope of dimeric pyranose oxidase from monosaccharide to glycoside preference through oligomeric state modification” (The Febs Journal, 2025).

Tests used:
KaPOx_xal = system: T1, KaPOx_xal; assay: Amplex Red / horseradish peroxidase coupled oxidase assay, steady state; format: biochemical, Kitasatospora aureofaciens; details: air O2 ~250 μM, 50 mM Tris/HCl pH 7.5, 30 °C; read-out: [drawing 2] Phlorizin / K m/mM
T1 construct: gene KaPOx; KaPOx with arm domain and oligomerization loop replaced by ScPOx insertion-1 domain and flexible loop; C-terminal His6; pET-21a(+), E. coli T7 Express
From the text: Amplex Red / horseradish peroxidase coupled oxidase assay, steady state on KaPOx_xal

KaPOx_xalh = system: T2, KaPOx_xalh; assay: as above; format: biochemical, Kitasatospora aureofaciens; details: air O2 ~250 μM, 50 mM Tris/HCl pH 7.5, 30 °C; read-out: [drawing 2] Phlorizin / K m/mM
T2 construct: gene KaPOx; C-terminal His6; pET-21a(+), E. coli T7 Express
From the text: Amplex Red / horseradish peroxidase coupled oxidase assay, steady state on KaPOx_xalh

Which results are given for `O=C(CCc1ccc(O)cc1)c1c(O)cc(O)cc1O[C@@H]1O[C@H](CO)[C@@H](O)[C@H](O)[C@H]1O` [Phlorizin]?
Km (KaPOx_xal): 0.015 ± 0.002 mM; Km (KaPOx_xalh): 0.019 ± 0.003 mM
